Laboratory results published in patent publication US8063069B2, “Prucalopride-N-oxide” (Janssen Pharmaceutica N.V., priority 2002, dated 2011).
Like-named read-outs stand apart in the source and are kept apart here.

Experiments:
[1] = pharmacokinetics of prucalopride in plasma after single oral administration to beagle dogs; format: in vivo; settings: for Cmax / Tmax: dog, plasma, po, 2.5 mg/kg; for Cmax: read-out: Cmax peak plasma concentration of prucalopride; for Tmax: read-out: Tmax time to reach the peak plasma concentration of prucalopride
Experimental: Two male beagle dogs were dosed orally with 1 ml of a test formulation comprising 2.5 mg/kg of 4-amino-5-chloro-2,3-dihydro-N-[1-(3-methoxypropyl)-4-piperidinyl]-7-benzofuran-carboxamide (“prucalopride”).
After a wash-out period of four weeks, the same two dogs were dosed orally with 1 ml of a test formulation comprising 2.61 mg/kg of compound (1).
Blood samples were taken via the jugular vein immediately before dosing (blank sample) and at 0.25 h, 0.5 h, 1 h, 1.5 h, 2 h, 4 h, 6 h, 8 h, and 24 h after dosing. Aliquots of 10 ml were collected in EDTA tubes. Immediately after collection of the blood samples, plasma samples were prepared by centrifugation at approximately 1700×g for approximately 10 minutes.
Concentrations of prucalopride in the plasma samples were determined by LC/MS/MS. The quantification limit for prucalopride was 5.0 ng/ml.
Based on the individual plasma concentration-time data, using the actual sampling times, the following pharmacokinetic parameters were determined for prucalopride after oral administration of prucalopride and compound (1) and summarized in Table 1. • Cmax peak plasma concentration, determined by visual inspection of the data • Tmax time to reach the peak plasma concentration, determined by visual inspection of the data. • AUC0-∞ area under the plasma concentration-time extrapolated to infinity

[2] = test system: colon; settings: in words, cited from earlier work
[3] = target: T1, 5-HT3A receptors (Homo sapiens, UniProt P46098); settings: in words; cited from earlier work
T1 sequence (P46098 24-478): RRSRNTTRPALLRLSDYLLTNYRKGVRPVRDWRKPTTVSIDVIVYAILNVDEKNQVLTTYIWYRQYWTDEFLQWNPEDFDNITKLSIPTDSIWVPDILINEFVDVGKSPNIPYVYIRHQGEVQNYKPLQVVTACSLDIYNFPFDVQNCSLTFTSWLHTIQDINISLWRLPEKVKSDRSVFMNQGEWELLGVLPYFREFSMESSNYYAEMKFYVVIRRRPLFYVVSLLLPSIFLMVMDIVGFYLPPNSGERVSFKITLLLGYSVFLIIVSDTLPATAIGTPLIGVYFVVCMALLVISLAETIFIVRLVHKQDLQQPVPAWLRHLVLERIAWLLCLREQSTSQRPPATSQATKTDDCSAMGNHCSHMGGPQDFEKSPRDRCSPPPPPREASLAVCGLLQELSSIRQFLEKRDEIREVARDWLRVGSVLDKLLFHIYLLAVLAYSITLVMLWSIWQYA

[4] = target: 5-HT2A receptors (Homo sapiens, UniProt P28223); settings: in words; cited from earlier work
[5] = target: 5-HT4 receptors (Homo sapiens, UniProt Q13639); settings: in words; cited from earlier work
[6] = Dog 1, oral administration of compound (1) 2.61 mg/kg, prucalopride measured in plasma
[7] = Dog 2, oral administration of compound (1) 2.61 mg/kg, prucalopride measured in plasma
[8] = oral administration, dogs, in words
[9] = male, beagle, Dog 1, oral administration of prucalopride 2.5 mg/kg, prucalopride measured in plasma
[10] = male, beagle, Dog 2, oral administration of prucalopride 2.5 mg/kg, prucalopride measured in plasma

Chain of 5-HT4 receptors (Q13639 whole entry): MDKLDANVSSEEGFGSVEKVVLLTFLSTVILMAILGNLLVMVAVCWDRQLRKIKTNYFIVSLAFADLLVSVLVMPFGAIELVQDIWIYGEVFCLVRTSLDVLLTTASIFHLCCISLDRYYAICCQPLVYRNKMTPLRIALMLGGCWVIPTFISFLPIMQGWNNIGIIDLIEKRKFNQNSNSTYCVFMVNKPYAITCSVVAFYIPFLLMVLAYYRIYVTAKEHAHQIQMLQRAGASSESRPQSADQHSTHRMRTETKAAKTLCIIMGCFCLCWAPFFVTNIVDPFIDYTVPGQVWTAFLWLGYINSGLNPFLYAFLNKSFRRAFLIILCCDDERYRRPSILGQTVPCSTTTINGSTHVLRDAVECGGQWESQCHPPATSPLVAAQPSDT
Chain of 5-HT2A receptors (P28223 whole entry): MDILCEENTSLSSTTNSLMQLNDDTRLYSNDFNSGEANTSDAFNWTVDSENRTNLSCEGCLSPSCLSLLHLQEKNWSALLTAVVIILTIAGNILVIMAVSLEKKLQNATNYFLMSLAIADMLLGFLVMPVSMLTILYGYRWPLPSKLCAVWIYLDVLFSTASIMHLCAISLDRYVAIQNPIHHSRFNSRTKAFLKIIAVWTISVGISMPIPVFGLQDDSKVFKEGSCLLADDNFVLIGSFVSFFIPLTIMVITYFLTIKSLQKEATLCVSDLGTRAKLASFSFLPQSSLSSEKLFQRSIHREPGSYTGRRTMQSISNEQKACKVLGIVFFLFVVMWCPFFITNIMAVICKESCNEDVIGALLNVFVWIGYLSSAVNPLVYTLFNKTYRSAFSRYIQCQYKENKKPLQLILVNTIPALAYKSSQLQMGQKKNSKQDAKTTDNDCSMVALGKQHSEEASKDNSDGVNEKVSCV

AUC0-∞ area under the plasma concentration-time extrapolated to infinity, prucalopride [1, 6] | Cmax peak plasma concentration of prucalopride [1, 6] | Tmax time to reach the peak plasma concentration of prucalopride [1, 6] | AUC0-∞ area under the plasma concentration-time extrapolated to infinity, prucalopride [1, 7] | Cmax peak plasma concentration of prucalopride [1, 7] | Tmax time to reach the peak plasma concentration of prucalopride [1, 7] | peak plasma concentration Cmax of prucalopride, compared with oral prucalopride [1, 8] | systemic exposure to prucalopride, compared with oral prucalopride itself [1, 8] | AUC0-∞ area under the plasma concentration-time extrapolated to infinity, prucalopride ([1]; Dog 2, oral administration of prucalopride 2.5 mg/kg, prucalopride measured in plasma) | Cmax [1, 9] | Tmax [1, 9] | Cmax [1, 10] | Tmax [1, 10] | AUC(0-inf) ([1]; male, beagle, Dog 1, oral administration of prucalopride 2.5 mg/kg, prucalopride measured in plasma, read-out: AUC0-∞ area under the plasma concentration-time extrapolated to infinity, prucalopride) | SMILES | colonic motility and defecation ([2]; animals) | giant contractions in the colon ([2]; propagated over the length of the colon as a peristaltic wave) | affinity for 5-HT3A receptors [3] | affinity for 5-HT2A receptors [4] | agonism of 5-HT4 receptors [5]
2265 ng·h/mL | 222 ng/mL | 2.0 h | 4093 ng·h/mL | 488 ng/mL | 2.0 h | lower | substantially lower |  |  |  |  |  |  | COCCC[N@+]1([O-])CC[C@@H](NC(=O)c2cc(Cl)c(N)c3c2OCC3)CC1.O [compound (1), cis-4-amino-5-chloro-2,3-dihydro-N-[1-(3-methoxypropyl)-4-piperidinyl]-7-benzofurancarboxamide, N-oxide monohydrate] |  |  |  |  | 
 |  |  |  |  |  |  |  | 4372 ng·h/mL | 556 ng/mL | 1 h | 660 ng/mL | 0.5 h | 4230 ng·h/mL | COCCCN1CCC(NC(=O)c2cc(Cl)c(N)c3c2OCC3)CC1 [prucalopride, 4-amino-5-chloro-2,3-dihydro-N-[1-(3-methoxypropyl)-4-piperidinyl]-7-benzofuran-carboxamide] | stimulates colonic motility and defecation | induces giant contractions in the colon | no affinity | no affinity | potent and selective agonist
